This is an account of results in paper PMC11500159, “Synthesis, α-Glucosidase, α-Amylase, and Aldol Reductase Inhibitory Activity with Molecular Docking Study of Novel Imidazo[1,2-a]pyridine Derivatives” (ACS Omega, 2024).

What is called Ki is the equilibrium dissociation constant of an inhibitor or competing ligand from its target. Low readings indicate a stronger hold on the target, high ones a looser hold on the target. The IC50 is the point on the concentration scale where inhibition reaches its midpoint. As usually defined, the melting point is the temperature of the solid-liquid transition.

The target of one data set is aldose reductase (AR) (Homo sapiens, UniProt P15121). The experiment in a line: AR inhibitory activity (NADPH consumption, absorbance at 340 nm). In kind it is biochemical. To be noted: Lineweaver-Burk curves; mean ± SEM. The procedure:
The activity was assessed using methods that were modified from previously established protocols.[48],[49] The inhibitory activity of AR was assessed by measuring the reduction in absorbance at 340 nm due to the consumption of NADPH. […] The IC50 of the derivatives was calculated from Activity (%) – [inhibitor] graphs for derivatives.

The target in a further data set is α-glycosidase (α-GLY) (Saccharomyces cerevisiae, UniProt P53341). Kind of data set: α-GLY inhibitory activity (para-nitrophenyl-α-D-glucopyranoside substrate). It counts as biochemical. To be noted: Lineweaver-Burk curves; for Ki: mean ± SEM. How it is done: In this analysis, a unit of α-GLY activity is defined as the amount of enzyme required to catalyze the hydrolysis of […] of substrate per minute at a standard pH of 7.4.
(§1) The inhibition effects of the novel imidazo[1,2-a]pyridine-based 1,3,4-thiadiazole derivatives were determined with different inhibitor concentrations (at least five) against AR, α-GLY, and α-AMY. The IC50 of the derivatives was calculated from Activity (%) – [inhibitor] graphs for derivatives. The inhibition types and KI values were found by Lineweaver and Burk’s curves.[50],[51]

The next data set has as its target T1, α-amylase (α-AMY) (Homo sapiens, UniProt P04746).
T1 sequence (P04746 16-511): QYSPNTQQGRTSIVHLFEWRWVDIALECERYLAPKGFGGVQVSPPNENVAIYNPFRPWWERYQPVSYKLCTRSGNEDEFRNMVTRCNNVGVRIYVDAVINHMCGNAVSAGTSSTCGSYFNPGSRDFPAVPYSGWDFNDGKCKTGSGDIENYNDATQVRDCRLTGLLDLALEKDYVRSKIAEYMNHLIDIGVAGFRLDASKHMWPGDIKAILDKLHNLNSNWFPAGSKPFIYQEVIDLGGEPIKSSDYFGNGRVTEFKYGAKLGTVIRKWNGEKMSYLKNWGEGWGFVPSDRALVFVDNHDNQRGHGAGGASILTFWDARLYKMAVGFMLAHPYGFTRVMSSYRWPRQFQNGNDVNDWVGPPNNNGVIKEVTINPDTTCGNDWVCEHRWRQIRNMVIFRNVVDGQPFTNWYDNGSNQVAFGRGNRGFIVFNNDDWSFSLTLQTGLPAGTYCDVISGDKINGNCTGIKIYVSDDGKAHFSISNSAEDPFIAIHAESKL
The experiment in a line: α-AMY inhibitory activity (starch-iodine method, absorbance at 580 nm). As to conditions: from Activity (%) - [inhibitor] graphs. In kind it is biochemical. How it is done:
The assay involved preparing a substrate solution of starch in NaOH, adjusting the pH with HCl, and diluting the solution to volume. Enzyme and sample solutions were preincubated, mixed with the substrate, and incubated again. The reaction was stopped with HCl, and the absorbance was measured at 580 nm.
as §1

Chain of α-glycosidase (α-GLY) (P53341 whole entry): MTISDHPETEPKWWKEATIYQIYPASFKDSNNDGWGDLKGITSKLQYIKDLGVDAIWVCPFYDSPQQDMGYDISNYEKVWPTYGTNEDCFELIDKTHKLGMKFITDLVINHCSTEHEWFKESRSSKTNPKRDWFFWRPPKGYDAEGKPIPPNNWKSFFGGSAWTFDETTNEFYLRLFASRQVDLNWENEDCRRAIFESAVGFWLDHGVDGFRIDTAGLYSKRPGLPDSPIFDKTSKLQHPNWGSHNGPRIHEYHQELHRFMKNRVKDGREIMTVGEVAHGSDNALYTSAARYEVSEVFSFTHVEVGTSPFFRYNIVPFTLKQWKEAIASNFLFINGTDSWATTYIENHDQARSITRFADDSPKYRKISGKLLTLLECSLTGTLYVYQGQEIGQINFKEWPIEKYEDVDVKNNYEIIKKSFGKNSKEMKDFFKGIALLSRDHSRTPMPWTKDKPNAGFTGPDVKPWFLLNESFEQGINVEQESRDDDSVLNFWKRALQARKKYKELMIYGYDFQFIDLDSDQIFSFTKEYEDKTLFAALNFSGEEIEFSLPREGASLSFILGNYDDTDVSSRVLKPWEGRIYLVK

Take `O=C(CSc1nnc(Nc2ccccc2)s1)Nc1ccc(-c2cn3ccccc3n2)cc1` [8a, 2-[(5-Phenylamino-1,3,4-thiadiazol-2-yl)thio]-N-[4-(imidazo[1,2-a]pyridin-2-yl)phenyl] Acetamide]: the Ki is 0.0349 ± 0.00359 µM at aldose reductase (AR) and 33 ± 1.25 µM at α-glycosidase (α-GLY). This molecule also registered an IC50 against α-amylase (α-AMY) of 142 µM.

In the case of `CCc1ccc(Nc2nnc(SCC(=O)Nc3ccc(-c4cn5ccccc5n4)cc3)s2)cc1` [8b, 2-[(5-(4-Ethylphenyl)amino-1,3,4-thiadiazol-2-yl)thio]-N-[4-(imidazo[1,2-a]pyridin-2-yl)phenyl]acetamide], the melting point was 244.2 °C. In addition, the α-GLY inhibition type result at α-glycosidase (α-GLY) is recorded as “noncompetitive inhibition”. The molecule also registered an IC50 against α-amylase (α-AMY) of 113 µM.

Regarding `O=C(CSc1nnc(NC2CCCCC2)s1)Nc1ccc(-c2cn3ccccc3n2)cc1` [8c, 2-[(5-Cyclohexylamino-1,3,4-thiadiazol-2-yl)thio]-N-[4-(imidazo[1,2-a]pyridin-2-yl)phenyl] Acetamide], the Ki came to 0.14 ± 0.0133 µM on aldose reductase (AR) and 77.5 ± 5.74 µM on α-glycosidase (α-GLY).

Take `CCNc1nnc(SCC(=O)Nc2ccc(-c3cn4ccccc4n3)cc2)s1` [8d, 2-[(5-Ethylamino-1,3,4-thiadiazol-2-yl)thio]-N-[4-(imidazo[1,2-a]pyridin-2-yl)phenyl] Acetamide]: the Ki on aldose reductase (AR) is 0.0785 ± 0.00824 µM; on α-glycosidase (α-GLY), 88.7 ± 17.7 µM. This molecule registered an IC50 against α-amylase (α-AMY) of 122 µM.

`Cc1ccc(Nc2nnc(SCC(=O)Nc3ccc(-c4cn5ccccc5n4)cc3)s2)cc1` [8e, 2-[(5-(4-Methylphenyl)amino-1,3,4-thiadiazol-2-yl)thio]-N-[4-(imidazo[1,2-a]pyridin-2-yl)phenyl]acetamide]: the melting point was 130.1 °C. Besides, the α-GLY inhibition type entry on α-glycosidase (α-GLY) is reported as “competitive inhibition”.

In the case of `O=C(CSc1nnc(Nc2ccc(Cl)cc2)s1)Nc1ccc(-c2cn3ccccc3n2)cc1` [8f, 2-[(5-(4-Chlorophenyl)amino-1,3,4-thiadiazol-2-yl)thio]-N-[4-(imidazo[1,2-a]pyridin-2-yl)phenyl]acetamide], the melting point worked out at 265 °C. Also, 142 µM corresponded to half-maximal inhibition against α-amylase (α-AMY) (IC50).

Regarding `O=C(CSc1nnc(Nc2cccc(Cl)c2)s1)Nc1ccc(-c2cn3ccccc3n2)cc1` [8g, 2-[(5-(3-Chlorophenyl)amino-1,3,4-thiadiazol-2-yl)thio]-N-[4-(imidazo[1,2-a]pyridin-2-yl)phenyl]acetamide], the melting point amounted to 199.2 °C. Moreover, half-maximal inhibition against α-amylase (α-AMY) (IC50) required 132 µM.

`COc1cccc(Nc2nnc(SCC(=O)Nc3ccc(-c4cn5ccccc5n4)cc3)s2)c1` [8h, 2-[(5-(3-Methoxyphenyl)amino-1,3,4-thiadiazol-2-yl)thio]-N-[4-(imidazo[1,2-a]pyridin-2-yl)phenyl]acetamide] displayed a melting point of 138.8 °C. In addition, on α-amylase (α-AMY), the half-inhibitory concentration (IC50) came out at 143 µM.

`COc1ccccc1Nc1nnc(SCC(=O)Nc2ccc(-c3cn4ccccc4n3)cc2)s1` [8i, 2-[(5-(2-Methoxyphenyl)amino-1,3,4-thiadiazol-2-yl)thio]-N-[4-(imidazo[1,2-a]pyridin-2-yl)phenyl]acetamide] registered a melting point of 104.9 °C. At α-amylase (α-AMY), this molecule showed a half-inhibitory concentration (IC50) of 154 µM.

`O=C(CSc1nnc(Nc2ccccc2Cl)s1)Nc1ccc(-c2cn3ccccc3n2)cc1` [8j, 2-[(5-(2-Chlorophenyl)amino-1,3,4-thiadiazol-2-yl)thio]-N-[4-(imidazo[1,2-a]pyridin-2-yl)phenyl]acetamide] showed a melting point of 129 °C. Besides, on α-amylase (α-AMY), the half-maximal inhibitory concentration (IC50) was determined as 81.1 µM.

For the molecule `COc1ccc(Nc2nnc(SCC(=O)Nc3ccc(-c4cn5ccccc5n4)cc3)s2)cc1` [8k, 2-[(5-(4-Methoxyphenyl)amino-1,3,4-thiadiazol-2-yl)thio]-N-[4-(imidazo[1,2-a]pyridin-2-yl)phenyl]acetamide], the melting point was 216.5 °C. At α-amylase (α-AMY), the IC50 worked out at 113 µM.
